From patent US11008572B2, “Methods and compositions for modulating splicing” (SKYHAWK THERAPEUTICS, INC., priority 2017, dated 2021)
Where two headings read alike, the source gives them in different places.

Tests used:
[1] = system: FOXM1^A2 mRNA and FOXM1^BC mRNA; experiment: Splicing assay (FOXM1), qPCR of isoform mRNAs; type: cell-based; details: for IC50: FoxM1 BC mRNA decrease (exon included), read-out: Splice IC50 (nM), FoxM1 BC mRNA decrease (exon included); for EC50: read-out: Splice EC50 (nM), FoxM1 A mRNA increase (exon excluded)
In short: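 RT-qPCR read-out after 24 h compound exposure at 37° C., 0.2% DMSO, top dose 10 μM with 4-fold 8-point dilutions, 20,000 cells per well. Copy numbers from plasmid standard curves, PPIA-normalized, expressed as isoform ratio relative to DMSO.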

A-673 cells = experiment: Cell viability, crystal violet staining; type: cell-based; details: Homo sapiens, A673, cell viability
In short: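 Readout is absorbance at 570 nm of crystal violet, taken up in 0.1 M sodium citrate in 50% ethanol after staining with 0.5% dye in 25% methanol. Plates held 5×10^3 cells per well, and compounds were added one day after seeding for 72 hours. Data are relative to vehicle, mean±SE.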

[2] = FoxM1 A mRNA increase (exon excluded), 0.1-1000 nM, 24 hours
[3] = read-out: A-673 IC50 (nM), Cell viability

Row | Structure (SMILES) | IC50 ([1]; 24 h, 0.1-1000 nM, 24 hours) | EC50 [1, 2] | IC50 (A-673 cells; [3]) | IC50 [1] | EC50 [1] | IC50 (A-673 cells; read-out: A-673 IC50 (nM), cell viability)
1 | Cc1nccn1-c1ccc(-c2ccc(N(C)[C@@H]3C[C@H]4CC[C@@H](C3)N4)nn2)c(O)c1 [compound 230, 2-(6-(((1R,3s,5S)-8-azabicyclo[3.2.1]octan-3-yl)(methyl)amino)pyridazin-3-yl)-5-(2-methyl-1H-imidazol-1-yl)phenol] | 501 to 1000 nM | 101 to 250 nM | > 1000 nM | – | – | –
2 | Cc1cn(-c2ccc(-c3ccc(N(C)[C@@H]4C[C@H]5CC[C@@H](C4)N5)nn3)c(O)c2)c(C)n1 [compound 231, 2-(6-(((1R,3s,5S)-8-azabicyclo[3.2.1]octan-3-yl)(methyl)amino)pyridazin-3-yl)-5-(2,4-dimethyl-1H-imidazol-1-yl)phenol] | 501 to 1000 nM | 251 to 500 nM | > 1000 nM | – | – | –
3 | CN(c1ccc(-c2ccc(-c3nnc(C(F)(F)F)o3)cc2O)nn1)[C@@H]1C[C@H]2CC[C@@H](C1)N2 [compound 232, 2-(6-(((1R,3s,5S)-8-azabicyclo[3.2.1]octan-3-yl)(methyl)amino)pyridazin-3-yl)-5-(5-(trifluoromethyl)-1,3,4-oxadiazol-2-yl)phenol] | 501 to 1000 nM | 101 to 250 nM | > 1000 nM | – | – | –
4 | Cc1nnn(-c2ccc(-c3ccc(N(C)[C@@H]4C[C@H]5CC[C@@H](C4)N5)nn3)c(O)c2)n1 [compound 234, 2-(6-(((1R,3s,5S)-8-azabicyclo[3.2.1]octan-3-yl)(methyl)amino)pyridazin-3-yl)-5-(5-methyl-2H-tetrazol-2-yl)phenol] | 10 to 100 nM | 10 to 100 nM | 10 to 100 nM | – | – | –
5 | Cc1ccc(-c2ccc(-c3ccc(N(C)[C@@H]4C[C@H]5CC[C@@H](C4)N5)nn3)c(O)c2)nn1 [compound 239, 2-(6-(((1R,3s,5S)-8-azabicyclo[3.2.1]octan-3-yl)(methyl)amino)pyridazin-3-yl)-5-(6-methylpyridazin-3-yl)phenol] | < 10 nM | < 10 nM | 251 to 500 nM | – | – | –
6 | CN(c1ccc(-c2ccc(-c3ccc(=O)n(C)c3)cc2O)nn1)[C@@H]1C[C@H]2CC[C@@H](C1)N2 [compound 241, 5-(4-(6-(((1R,3s,5S)-8-azabicyclo[3.2.1]octan-3-yl)(methyl)amino)pyridazin-3-yl)-3-hydroxyphenyl)-1-methylpyridin-2(1H)-one] | 10 to 100 nM | < 10 nM | 101 to 250 nM | – | – | –
7 | CN(c1ccc(-c2ccc(-n3cnc(C(F)(F)F)c3)cc2O)nn1)[C@@H]1C[C@H]2CC[C@@H](C1)N2 [compound 242, 2-(6-(((1R,3s,5S)-8-azabicyclo[3.2.1]octan-3-yl)(methyl)amino)pyridazin-3-yl)-5-(4-(trifluoromethyl)-1H-imidazol-1-yl)phenol] | 101 to 250 nM | 10 to 100 nM | 251 to 500 nM | – | – | –
8 | CN(c1ccc(-c2ccc(-n3cncn3)cc2O)nn1)[C@@H]1C[C@H]2CC[C@@H](C1)N2 [compound 243] | 10 to 100 nM | < 10 nM | 10 to 100 nM | – | – | –
9 | Cc1cn(-c2ccc(-c3ccc(O[C@@H]4C[C@H]5CC[C@@H](C4)N5)nn3)c(O)c2)cn1 [compound 246, 2-(6-(((1R,3s,5S)-8-azabicyclo[3.2.1]octan-3-yl)oxy)pyridazin-3-yl)-5-(4-methyl-1H-imidazol-1-yl)phenol] | 101 to 250 nM | 10 to 100 nM | 251 to 500 nM | – | – | –
10 | Cc1cnn(-c2ccc(-c3ccc(O[C@@H]4C[C@H]5CC[C@@H](C4)N5)nn3)c(O)c2)c1 [compound 249, 2-(6-(((1R,3s,5S)-8-azabicyclo[3.2.1]octan-3-yl)oxy)pyridazin-3-yl)-5-(4-methyl-1H-pyrazol-1-yl)phenol] | 251 to 500 nM | 101 to 250 nM | 501 to 1000 nM | – | – | –
11 | Cc1ccn(-c2ccc(-c3ccc(O[C@@H]4C[C@H]5CC[C@@H](C4)N5)nn3)c(O)c2)n1 [compound 250, 2-(6-(((1R,3s,5S)-8-azabicyclo[3.2.1]octan-3-yl)oxy)pyridazin-3-yl)-5-(3-methyl-1H-pyrazol-1-yl)phenol] | 101 to 250 nM | 10 to 100 nM | 501 to 1000 nM | – | – | –
12 | Oc1cc(-n2ccnn2)ccc1-c1ccc(O[C@@H]2C[C@H]3CC[C@@H](C2)N3)nn1 [compound 252, 2-(6-(((1R,3s,5S)-8-azabicyclo[3.2.1]octan-3-yl)oxy)pyridazin-3-yl)-5-(1H-1,2,3-triazol-1-yl)phenol] | 251 to 500 nM | 101 to 250 nM | 501 to 1000 nM | – | – | –
13 | Oc1cc(-c2nnn[nH]2)ccc1-c1ccc(O[C@@H]2C[C@H]3CC[C@@H](C2)N3)nn1 [compound 254, 2-(6-(((1R,3s,5S)-8-azabicyclo[3.2.1]octan-3-yl)oxy)pyridazin-3-yl)-5-(1H-tetrazol-5-yl)phenol] | > 1000 nM | > 1000 nM | > 1000 nM | – | – | –
14 | Cc1ncc(-c2ccc(-c3ccc(O[C@@H]4C[C@H]5CC[C@@H](C4)N5)nn3)c(O)c2)o1 [compound 255, 2-(6-(((1R,3s,5S)-8-azabicyclo[3.2.1]octan-3-yl)oxy)pyridazin-3-yl)-5-(2-methyloxazol-5-yl)phenol] | 101 to 250 nM | 101 to 250 nM | 501 to 1000 nM | – | – | –
15 | Cc1cc(-c2ccc(-c3ccc(O[C@@H]4C[C@H]5CC[C@@H](C4)N5)nn3)c(O)c2)on1 [compound 256, 2-(6-(((1R,3s,5S)-8-azabicyclo[3.2.1]octan-3-yl)oxy)pyridazin-3-yl)-5-(3-methylisoxazol-5-yl)phenol] | > 1000 nM | > 1000 nM | > 1000 nM | – | – | –
16 | CN(c1ccc(-c2ccc(-n3nccn3)cc2O)nn1)[C@@H]1C[C@H]2CCC[C@@H](C1)N2 [compound 275, 2-(6-(((1R,3s,5S)-9-azabicyclo[3.3.1]nonan-3-yl)(methyl)amino)pyridazin-3-yl)-5-(2H-1,2,3-triazol-2-yl)phenol] | < 10 nM | < 10 nM | < 10 nM | – | – | –
17 | Oc1cc(-c2cn[nH]c2)ccc1-c1ccc(O[C@H]2CC3CCC[C@@H](C2)N3)nn1 [compound 277, 2-(6-(((1R,3r,5S)-9-azabicyclo[3.3.1]nonan-3-yl)oxy)pyridazin-3-yl)-5-(1H-pyrazol-4-yl)phenol] | > 1000 nM | > 1000 nM | > 1000 nM | – | – | –
18 | CN(c1ccc(-c2ccc(-n3ccnn3)cc2O)nn1)[C@@H]1C[C@H]2CCC[C@@H](C1)N2 [compound 279, 2-(6-(((1R,3s,5S)-9-azabicyclo[3.3.1]nonan-3-yl)(methyl)amino)pyridazin-3-yl)-5-(1H-1,2,3-triazol-1-yl)phenol] | < 10 nM | < 10 nM | 10 to 100 nM | – | – | –
19 | [2H]C([2H])([2H])n1ncc(-c2ccc(-c3ccc(N(C)C4CC5CCCC(C4)N5)nn3)c(O)c2)cc1=O [compound 281, 5-(4-(6-(((1R,3s,5S)-9-azabicyclo[3.3.1]nonan-3-yl)(methyl)amino)pyridazin-3-yl)-3-hydroxyphenyl)-2-(methyl-d3)pyridazin-3(2H)-one] | < 10 nM | < 10 nM | < 10 nM | – | – | –
20 | [2H]C([2H])([2H])n1ccc(-c2ccc(-c3ccc(N(C)C4CC5CCCC(C4)N5)nn3)c(O)c2)cc1=O [compound 284, 4-(4-(6-(((1R,3s,5S)-9-azabicyclo[3.3.1]nonan-3-yl)(methyl)amino)pyridazin-3-yl)-3-hydroxyphenyl)-1-(methyl-d3)pyridin-2(1H)-one] | < 10 nM | > 1000 nM | < 10 nM | – | – | –
21 | CN(c1ccc(-c2cc(F)c(-c3ccn(C)c(=O)c3)cc2O)nn1)[C@@H]1C[C@H]2CCC[C@@H](C1)N2 [compound 285, 4-(4-(6-(((1R,3s,5S)-9-azabicyclo[3.3.1]nonan-3-yl)(methyl)amino)pyridazin-3-yl)-2-fluoro-5-hydroxyphenyl)-1-methylpyridin-2(1H)-one] | < 10 nM | > 1000 nM | < 10 nM | – | – | –
22 | CN(c1ccc(-c2cc3oc(C(=O)NC4CC4)cc3cc2O)nn1)[C@@H]1C[C@H]2CCC[C@@H](C1)N2 [compound 296, 6-(6-(((1R,3s,5S)-9-azabicyclo[3.3.1]nonan-3-yl)(methyl)amino)pyridazin-3-yl)-N-cyclopropyl-5-hydroxybenzofuran-2-carboxamide] | 10 to 100 nM | < 10 nM | 101 to 250 nM | – | – | –
23 | [2H]C([2H])([2H])c1ncc(-c2cc(O)c(-c3ccc(N(C)[C@H]4C[C@]5(C)CC[C@](C)(C4)N5)nn3)cc2F)o1 [compound 304, 2-(6-(((1R,3s,5S)-1,5-dimethyl-8-azabicyclo[3.2.1]octan-3-yl)(methyl)amino)pyridazin-3-yl)-4-fluoro-5-(2-(methyl-d3)oxazol-5-yl)phenol] | < 10 nM | > 1000 nM | 10 to 100 nM | – | – | –
24 | CN(c1ccc(-c2cc(F)c(-c3cc[nH]c(=O)c3)cc2O)nn1)[C@H]1C[C@]2(C)CCC[C@](C)(C1)N2 [compound 307, 4-(4-(6-(((1R,3s,5S)-1,5-dimethyl-9-azabicyclo[3.3.1]nonan-3-yl)(methyl)amino)pyridazin-3-yl)-2-fluoro-5-hydroxyphenyl)pyridin-2(1H)-one] | – | – | – | < 10 nM | < 10 nM | 10 to 100 nM
